Assay results from ChEMBL document CHEMBL1201862, “PubChem BioAssay data set” (2004).
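Method: 48-hour compound exposure of cells in 96-well plates, five concentrations, linear interpolation of endpoints. Here, GI50 denotes the concentration required for 50% inhibition of growth.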 Calls of active or inactive are those of the source. Cut-off read from the data, not from the text of the source: active = GI50 up to about 1.1 µM and inactive = higher.

What was measured:
Assay in all cases: NCI tumour cell line growth inhibition, 48 h
[1] = system: A549
[2] = system: CAKI-1
[3] = system: EKVX
[4] = system: HCC 2998
[5] = system: HCT-116
[6] = system: LXFL 529
[7] = system: M14
[8] = system: NCI-H23
[9] = system: OVCAR-3
[10] = system: OVCAR-8
[11] = system: SF-268
[12] = system: SK-MEL-2
[13] = system: SNB-75
[14] = system: SW-620
[15] = system: UO-31

Measured: GI50

NC(=O)CC(N/C=C1/N=C(c2ccccc2)OC1=O)C(=O)O (stereo not given)
inactive: [1] > 100 µM | [2] > 100 µM | [3] > 100 µM | [4] > 100 µM | [5] > 100 µM | [6] > 100 µM | [7] > 100 µM | [8] > 100 µM | [9] > 100 µM | [10] > 100 µM | [11] > 100 µM | [12] > 100 µM | [13] > 100 µM | [14] > 100 µM | [15] > 100 µM

O=c1ccn([C@@H]2C[C@H](CO)C[S+]([O-])C2)c(=O)[nH]1 (stereo not given in full)
inactive: [1] > 100 µM | [2] > 100 µM | [3] > 100 µM | [4] > 100 µM | [5] > 100 µM | [6] > 100 µM | [7] > 100 µM | [8] > 100 µM | [9] > 100 µM | [10] > 100 µM | [11] > 100 µM | [12] > 100 µM | [13] > 100 µM | [14] > 100 µM | [15] > 100 µM

Cc1cc(C)c(C2[C@H]3C(=O)N(c4ccc(Cc5ccc(N6C(=O)[C@@H]7ON(c8ccccc8)C(c8c(C)cc(C)cc8C)[C@@H]7C6=O)cc5)cc4)C(=O)[C@H]3ON2c2ccccc2)c(C)c1 (stereo not given in full)
inactive: [1] > 100 µM | [2] 57.9 µM | [3] > 100 µM | [4] > 100 µM | [5] > 100 µM | [6] > 100 µM | [7] > 100 µM | [8] > 100 µM | [9] > 100 µM | [10] > 100 µM | [11] > 100 µM | [12] > 100 µM | [13] > 100 µM | [14] > 100 µM | [15] > 100 µM

CN(CCCCN)c1ccc2c(=O)[nH][nH]c(=O)c2c1
inactive: [1] > 100 µM | [2] > 100 µM | [3] > 100 µM | [4] > 100 µM | [5] > 100 µM | [6] > 100 µM | [7] 13.5 µM | [8] 2.24 µM | [9] > 100 µM | [10] > 10 µM | [11] 13 µM | [12] > 100 µM | [13] 88.3 µM | [14] > 100 µM | [15] > 100 µM

O=C1c2ccccc2C(=O)c2c1cc(S(=O)(=O)O)c(O)c2O [Alizarin Red S]
inactive: [1] > 100 µM | [2] > 100 µM | [3] > 100 µM | [4] > 100 µM | [5] > 100 µM | [6] > 100 µM | [7] > 100 µM | [8] > 100 µM | [9] > 100 µM | [10] > 100 µM | [11] > 100 µM | [12] 32.4 µM | [13] > 100 µM | [14] > 100 µM | [15] > 100 µM

CN1C(=O)C(=O)c2cc3c(c4c2c1cc1ccccc14)OCO3 [CEPHARADIONE A]
inactive: [1] 33.7 µM | [2] 31.3 µM | [3] 69.7 µM | [4] 49.1 µM | [5] 15.6 µM | [6] 30.8 µM | [7] 26.7 µM | [8] 40.7 µM | [9] 62.1 µM | [10] 24.1 µM | [11] 21.9 µM | [12] 46.7 µM | [13] 39.2 µM | [14] 35.4 µM | [15] 20.2 µM

Cc1nc(N)sc1C(=O)/C=C\c1ccc2c(c1)OCO2
inactive: [1] > 100 µM | [2] > 100 µM | [3] > 100 µM | [4] > 100 µM | [5] > 100 µM | [6] > 100 µM | [7] > 100 µM | [8] > 100 µM | [9] > 100 µM | [10] > 100 µM | [11] > 100 µM | [12] > 100 µM | [13] > 100 µM | [14] > 100 µM | [15] > 100 µM
